“Also recorded” adds a separate entry of the source. Like-named read-outs stand apart in the source and are kept apart here. One block for each molecule: values may come before it.
Key:
[1] = system: ATRX mutant SCLC lines NCI-H446, SW1271 and NCI-H841; test: Response of ATRX mutant SCLC lines; type: cell-based
Text: FIGS. 8A-8C are three graphs establishing that ATRX mutant SCLC lines NCI-H446 (FIG. 8A), SW1271 (FIG. 8B) and NCI-H841 (FIG. 8C) are responding to Compound D.

[2] = system: SNF5 mutant cell lines A204, G401 and G402; test: Response of SNF5 mutant versus wild type cell lines; type: cell-based
SCLC line NCI-H841 = test: Morphology of SCLC line by microscopy; type: cell-based; details: 4.1E-02 uM or 3.3 uM
[3] = system: LNCAP prostate cancer cells; test: LNCAP cell growth inhibition in vitro; type: cell-based
[4] = system: G401 SNF mutant cell line; test: Soft agar growth, 7 days; type: cell-based; details: after 7 days
Text: FIGS. 3A-3D are a series of bar graphs showing that G401 SNF mutant cell line is responding to Compound D after 7 days in soft agar compared to wild type cells RD.

[5] = system: atypical teratoid rhabdoid tumors (ATRTs); test: ATRT cell self-renewal; type: cell-based; details: up to 7 or 10 days post-treatment
Text: FIG. 24A is a series of photographs showing control or EZH2 inhibitor-treated (DNZep-treated) atypical teratoid rhabdoid tumors (ATRTs) at 1, 3, 5, and 7 days post-treatment.
FIG. 24D is a series of photographs showing control or EZH2 inhibitor-treated (DNZep-treated) atypical teratoid rhabdoid tumors (ATRTs) at 3, 5, 8 and 10 days post-treatment.

UPN737 ATRT cell line = test: Surviving fraction after 2Gy radiation; type: cell-based
Text: FIG. 25B is a pair of graphs showing a surviving fraction of untreated or DZNEP-treated ATRT cells (from a UPN737 ATRT cell line, “737”) exposed to 2Gy radiation.

BT-16 ATRT cell line = test: Surviving fraction after 2Gy radiation; type: cell-based
Text: FIG. 25A is a pair of graphs showing a surviving fraction of untreated or DZNEP-treated ATRT cells (from a BT-16 ATRT cell line) exposed to 2Gy radiation.

Medulloblastoma cells = test: Medulloblastoma cell growth, total cells per milliliter counted; type: cell-based; details: versus DMSO control, counted each day for 10 days; tazemetostat 0.5, 2 and 6 μM
Text: The total cells per milliliter of culture were counted each day for 10 days.

cellular H3K27Me3 = test: Cellular histone methylation in G401 and RD cells; type: cell-based
Procedure: FIGS. 10A-10C are a series of graphs showing effects of Compound A on cellular global histone methylation and cell viability.
(FIG. 12A) Cell lysates were analyzed by immunoblot with antibodies specific to SMARCB1, EZH2 and Actin (loading control). […] Cells were incubated with Compound A for 4 days, and acid-extracted histones were analyzed by immunoblot.

[6] = Oral bioavailability (general statement); details: in vivo
[7] = system: G401 SNF5 mutant cell line; test: CellTiter-Glo Luminescent Cell Viability Assay after 7 day pretreatment; type: cell-based; details: pretreated for 7 days, replated on day 0
Procedure: FIGS. 4A-4D are four graphs showing that G401 SNF5 mutant cell line is sensitive to Compound A in vitro. Wild type cell line SJCRH30 (FIG. 4A) and RD (FIG. 4C) and SNF5 mutant cell line G401 (FIG. 4B) and A204 (FIG. 4D) were pretreated for 7 days with indicated concentrations of Compound A and replated on day 0. Cell viability was determined by CellTiter-Glo® Luminescent Cell Viability Assay.

[8] = PBPK model (Gastroplus) prediction of adult steady-state PK; details: adults, 100-1600 mg BID
ATRT = ATRT in vivo, percent survival
[9] = system: SMARCB1-deleted MRT cells (G401); test: Cell cycle analysis (flow cytometry) and apoptosis (TUNEL assay); type: cell-based; details: 1 μM, up to 14 days
Procedure: Cell cycle analysis (by flow cytometry) and determination of apoptosis (by TUNEL assay) in RD (FIG. 13A) or G401 cells (FIG. 13B) during incubation with either vehicle or 1 μM Compound A for up to 14 days. […] Data are represented as mean values±SEM (n=2). The DMSO control values shown are the average±SEM from each time point. Cells were split and re-plated on days 4, 7 and 11 at the original seeding density.

[10] = Phase 1 clinical trial, observed steady-state PK in adults; details: for CL/F Observed: adults, steady-state; for AUC(0-t) / Cmax: human, in vivo, po
SMARCB1 regulated genes = test: Gene expression by qPCR and cell morphology; type: cell-based; details: 1 μM; 2, 4 and 7 days (G401, RD); 14 days (G402)
Procedure: (FIG. 14A) Basal expression of SMARCB1 regulated genes in G401 SMARCB1-deleted cells, relative to RD control cells (measured by qPCR, n=2). (FIGS. 14B-14L) G401 and RD cells were incubated with either DMSO or 1 μM Compound A for 2, 4 and 7 days. Gene expression was determined by qPCR (n=2) and is expressed relative to the DMSO control of each time point. FIGS. 14B-14K correspond to genes GLI1, PTCh1, DOCK4, CD133, PTPRK, BIN1, CDKN1A, CDKN2A, EZH2, and MYC, respectively. (FIG. 14L) G402 cells were incubated with either DMSO (left panel) or 1 μM Compound A (right panel) for 14 days. Cells were split and re-plated to the original seeding density on day 7.

[11] = system: primary medulloblastoma cells; details: for primary medulloblastoma cell growth ex vivo: slice culture treated for 4 days
Procedure: A slice culture of medulloblastoma was freshly isolated from a subject.
A patient having medulloblastoma underwent surgery to remove a slice of tumor tissue for testing. The medulloblastoma slice was cultured ex vivo on tissue supporting inserts (FIG. 28A). […] Following the treatment period, the cells of the slice culture were treated with BrdU for 4 hours prior to disaggregation and sorting by flow cytometry.

[12] = system: G401 xenografts (malignant rhabdoid tumor model); test: G401 xenograft tumor regression; type: in vivo, SCID mice; details: twice daily (BID) administration at the indicated doses; listed as Compound A
Procedure: Data represent the mean values±SEM (n=8). Compound administration was stopped on day 28. (FIG. 5C) EZH2 target inhibition in G401 xenograft tumor tissue collected from a parallel cohort of mice on day 21. […] Horizontal lines represent group mean values. BLLQ=below lower limit of quantification. (FIG. 5D, FIG. 5E) Immunohistochemical staining of tumor histone methylation of tumor samples from the vehicle treated (FIG. 5D) and Compound A treated (FIG. 5E) (at 125 mg/kg) mice.
Data are presented as mean values±SEM (n=16 until day 21, n=8 from day 22 to 60). […] (FIG. 15C) Tumor weights of 8 mice euthanized on day 21. ****p<0.0001, Fisher's exact test. (FIG. 15D) Plasma was collected 5 min before and 3 h after dosing of Compound A on day 21, and compound levels were measured by LC-MS/MS. Animals were euthanized, and tumors were collected 3 h after dosing on day 21. Tumor homogenates were generated and subjected to LC-MS/MS analysis to determine Compound A concentrations. Note that tumor compound levels could not be determined from all animals especially in the higher dose groups because the xenografts were too small on day 21. Dots represent values for the individual animals; horizontal lines represent group mean values.
Compound administration was stopped on day 28 and tumors were allowed to re-grow until they reached 2000 mm^3 (data shown as mean values±SEM, n=8). […]

[13] = 500 nM or 2 μM for 4 days, versus untreated control

Structure (SMILES): CCN(c1cc(-c2ccc(CN3CCOCC3)cc2)cc(C(=O)NCc2c(C)cc(C)[nH]c2=O)c1C)[C@H]1CC[C@H](N(C)C)CC1 [Compound D]
response of ATRX mutant SCLC lines [1]: responding
response of SNF5 mutant cell lines compared to wild type cell lines RD and SJCRH30 [2]: selectively respond
cell morphology (SCLC line NCI-H841): changes morphology
cell growth inhibition [3]: dose-dependent cell growth inhibition
response in soft agar compared to wild type cells RD [4]: responding

Structure (SMILES): Nc1nccc2c1ncn2C1C=C(CO)C(O)C1O (centres unmarked) [DNZep]
ATRT cell self-renewal [5]: suppresses ATRT cell self-renewal
radio-sensitization (surviving fraction) (UPN737 ATRT cell line): radio-sensitizes ATRT
radio-sensitization (surviving fraction) (BT-16 ATRT cell line): radio-sensitizes ATRT

Structure (SMILES): CC[C@H](C)n1cc(C)c2c(C(=O)NCc3c(C)cc(C)[nH]c3=O)cc(-c3ccc(N4CCNCC4)nc3)cc21 [GSK-126, reference compound]
medulloblastoma cell growth (total cells per milliliter) (Medulloblastoma cells): decrease medulloblastoma cell growth

oral bioavailability [6]: orally bioavailable
deviation of predicted mean steady-state AUC0-t from observed [8]: ≤ 30%
deviation of predicted oral clearance (CL/F) from observed [8]: ≤ 30%
CL/F Observed ([10]; 100 mg BID p.o. (n = 6)): 309 L/h
CL/F Observed ([10]; 200 mg BID p.o. (n = 3)): 198 L/h
CL/F Observed ([10]; 400 mg BID p.o. (n = 3)): 264 L/h
CL/F Observed ([10]; 800 mg BID p.o. (n = 6)): 152 L/h
CL/F Observed ([10]; 1600 mg BID p.o. (n = 6)): 180 L/h
AUC(0-t) ([10]; 100 mg): 348 ng·h/mL
Cmax ([10]; 100 mg): 99 ng/mL
AUC(0-t) ([10]; 200 mg): 1010 ng·h/mL
Cmax ([10]; 200 mg): 237 ng/mL
AUC(0-t) ([10]; 400 mg): 1510 ng·h/mL
Cmax ([10]; 400 mg): 313 ng/mL
AUC(0-t) ([10]; 800 mg): 4630 ng·h/mL
Cmax ([10]; 800 mg): 818 ng/mL
AUC(0-t) ([10]; 1600 mg): 7880 ng·h/mL
Cmax ([10]; 1600 mg): 1480 ng/mL
Structure (SMILES): CCN(c1cc(-c2ccc(CN3CCOCC3)cc2)cc(C(=O)NCc2c(C)cc(C)[nH]c2=O)c1C)C1CCOCC1 [tazemetostat]
cellular H3K27Me3 levels (cellular H3K27Me3): Concentration-dependent inhibition
specificity for inhibition of cellular histone methylation (cellular H3K27Me3; 4 days, immunoblot): Selective inhibition of cellular H3K27 methylation
sensitivity of cell viability in vitro [7]: sensitive
ATRT in vivo (percent survival versus vehicle) (ATRT): decreases ATRT in vivo
G1 arrest [9]: G1 arrest was observed as of day 7
apoptosis ([9]; TUNEL): apoptosis was induced as of day 11
expression of SMARCB1 regulated genes and cell morphology (SMARCB1 regulated genes): induces changes in expression of SMARCB1 regulated genes and cell morphology
proportion of cells in G0/G1 stage [11, 13]: increased proportion
proportion of cells in G2/M stage [11, 13]: decreased proportion
primary medulloblastoma cell growth ex vivo [11]: inhibits proliferation/growth of medulloblastoma cells
primary medulloblastoma cell growth ex vivo ([11]; listed as Tazemetostat): decreases primary medulloblastoma cell growth ex vivo
tumor response in G401 xenografts [12]: durable regressions; also recorded: Tumor regressions; also recorded: eradicates SMARCB1-deleted MRT xenografts
medulloblastoma cell growth (total cells per milliliter) (Medulloblastoma cells): significant decrease; also recorded: decrease medulloblastoma cell growth

Structure (SMILES): CCCc1cc(C)[nH]c(=O)c1CNC(=O)c1cc(-c2ccc(N3CCN(C(C)C)CC3)nc2)cc2c1cnn2C(C)C [UNC 1999, reference compound]
medulloblastoma cell growth (total cells per milliliter) (Medulloblastoma cells): decrease medulloblastoma cell growth
